{"source": "the NIST ThermoML archive (doi:10.1021/acs.jced.8b00771)", "experiment": "molar heat capacity at constant pressure", "conditions": "100 kPa, Extra sensitive DSC", "note": "Numbers after ± are expanded uncertainties.", "data": [{"molecule": "CCn1cc[n+](C)c1.[Cl-]", "note": "[1-ethyl-3-methylimidazolium chloride]", "values": [{"measurement": "molar heat capacity at constant pressure", "setting": "293.15 K, Crystal", "value": "216.99 ± 12", "unit": "J/K/mol"}, {"measurement": "molar heat capacity at constant pressure", "setting": "303.15 K, Crystal", "value": "221.39 ± 12", "unit": "J/K/mol"}, {"measurement": "molar heat capacity at constant pressure", "setting": "313.15 K, Crystal", "value": "224.33 ± 12", "unit": "J/K/mol"}, {"measurement": "molar heat capacity at constant pressure", "setting": "363.15 K, Liquid", "value": "284.44 ± 13", "unit": "J/K/mol"}, {"measurement": "molar heat capacity at constant pressure", "setting": "373.15 K, Liquid", "value": "291.77 ± 13", "unit": "J/K/mol"}]}]}
